The test system of data set [1] is primary cultured pig hepatocytes. The data set is described as follows: Steroid metabolism in primary cultured pig hepatocytes, LC-TOF-MS of cell culture medium. As to conditions: for Peak height of the ion chromatogram of the steroid metabolite in cell culture medium, C: 48 h incubation in absence of enzyme inhibitors, 10 µM parent steroid, Mean ± SD.
The next data set can be described thus: in vitro. As to conditions: male, Large White, pig. How it is done: Primary pig hepatocytes were isolated from Large White male pigs (3–5 days old) using procedure described by Chen et al.. The experimental protocol for using animals was approved by the Animal Ethics Committee of the China Agricultural University, Beijing, China (permission number: 2011-11-23-1). […] Approximately 5×10^6 cells were plated into 10 cm Petri dishes with 10 ml of Dulbecco modified Eagle’s medium (DMEM) containing 20% fetal bovine serum (FBS) supplemented with insulin (10 mg/L), penicillin (100 U/mL) and streptomycin (100 µg/mL). Hepatocytes were incubated for 24 h in a humidified atmosphere at 37°C with 5% of CO2.
After the incubation, the primary pig hepatocytes were washed three times with phosphate buffer saline solution (PBS) before they were treated with steroids and/or inhibitors. In steroid metabolism studies, hepatocytes were incubated in 10 ml of basal growth medium containing phenol red-free DMEM with 10% of charcoal treated FBS fortified with 10 µM (final concentration) of androstenone, 17β-estradiol or dihydrotestosterone. In the inhibition experiments, 10 µM (final concentration) of trilostane or apigenin, the specific inhibitors of 3βHSD and 17βHSD respectively, were added to hepatocytes simultaneously with androstenone, 17β-estradiol or dihydrotestosterone. Solutions of both, the inhibitors and steroids, were prepared in methanol. […] In the cytotoxicity text, the steroids were incubated with different concentrations of inhibitors (1, 10, 25 and 50 µM) for 48 h. The cell viability was analyzed using CellTiter-Glo Luminescent Cell Viability Assay (Promega, Madison, WI) reagent following manufacture’s protocol. The cell culture medium was collected at the following time points: 0, 6, 12, 18, 24, 30, 36, 42 and 48 h after adding steroids and/or inhibitors, and was stored at −80°C until metabolites analysis. Cells treated with basal growth medium were used as control. The experiments were repeated in three different days. Experiments on each of the three days were conducted in triplicate.

In data set [2] the test system is primary cultured pig hepatocytes. To be noted: male, Large White, 10 µM.
The subject of another data set is 17βHSD. The data set is described as follows: Inhibition of steroid glucuronide metabolite formation in pig hepatocytes by the 17βHSD inhibitor. Type of data set: cell-based. On the procedure:
(§1) The experiments were repeated in three different days.
(§2) Extraction procedure for steroid metabolites was as follows: two mL of cell culture medium was taken in duplicate from each hepatocytes incubation and split into two samples, 1 mL per sample. One sample was treated with 0.1 mL of 30% trichloroacetic acid (TCA) to precipitate protein. The protein precipitation procedure was optimized by analyzing protein residues using HPLC at ultraviolet wavelength (240 nm). Another sample was pre-treated with β-glucuronidase prior to protein precipitation. The pre-treatment involved incubation with 2 mL of PBS buffer (pH = 5.0) in the presence of β-glucuronidase (2.08 µkat) for 16 h at 37°C. The samples were centrifuged at 17226 g for 10 min. All of the supernatants were collected and loaded onto a SPE cartridge (Bond Elut-C18, 500 mg/3 mL, Agilent, Lake Forest, CA, USA) preconditioned with 3 mL of methanol and water. The cartridges were washed with 3 mL of water and 3 mL 5% of methanol and then vacuum dried. The analytes were eluted with 9 mL of acetonitrile (ACN). The elutants were evaporated under nitrogen and reconstituted with 400 µL of 62.5% methanol. Solvents were passed through 0.22 µm filter paper (Jinteng company, Tianjin, China), and then transferred to inserts for analysis. The recoveries were determined by analyzing spiked samples in a basal medium. The recoveries for androstenone, 17β-estradiol and dihydrotestosterone were in a range of 60–95%.
(§3) Steroid metabolites were analyzed by LC-TOF-MS (QSTAR Elite, AB Sciex, ON, Canada) equipped with an electrospray ion source (TurboIonSpray) and controlled by Analyst QS 2.0 software. ESI source was run on both, a positive and negative mode. Spectrometry parameters were as follows: ion source GS1 and GS2 were 0.41 and 0.34 MPa, respectively. Curtain gas was 0.14 MPa. Collision gas was 0.04 MPa. All the gases were supplied with nitrogen (purity≥99.995%). IonSpray voltage was 5500 V (ESI+) and −4200 V (ESI–). Ion source temperature was 500°C. Declustering Potential (DP) was 60 V (ESI+) and −60 V (ESI–). The Q1 mass monitoring was conducted using a scan mode in the range from 200 to 600 m/z. Mass intensity above 100 counts was set for acquiring product ions on TOF analyzer. An information dependent acquisition (IDA) method was set to optimize data acquisition.
(§4) Chromatographic separation was conducted using HPLC coupled to mass spectrometry (1200 SL, Agilent Technologies, USA) equipped with a binary pump, vacuum solvent degasser, column oven and autosampler (Agilent Technologies, Waldbronn, Germany). The column used was Zorbax Eclipse Plus C18 (2.1×100 mm, 3.5 µm) with a guard column (2.1×12.5 mm, 5 µm) (Agilent Technologies, USA). For the ESI+ mode, the mobile phase was 0.1% formic acid in water (A) and methanol (B). For the ESI– mode, the mobile phase was 0.1% ammonium in water (A) and methanol (B). The linear gradient used was as follows: 50% to 95% solvent B at 0–5 min; 95% solvent at 9 min, 50% solvent B at 9.1 and 15 min. The flow rate was 300 µL/min, and the sample injection volume was 20 µL.

Another data set deals with T1, 3βHSD (Sus scrofa, UniProt Q9N119).
T1 construct: endogenous in cells; host or cells: primary hepatocytes of Large White male pigs
T1 sequence (Q9N119 1-373): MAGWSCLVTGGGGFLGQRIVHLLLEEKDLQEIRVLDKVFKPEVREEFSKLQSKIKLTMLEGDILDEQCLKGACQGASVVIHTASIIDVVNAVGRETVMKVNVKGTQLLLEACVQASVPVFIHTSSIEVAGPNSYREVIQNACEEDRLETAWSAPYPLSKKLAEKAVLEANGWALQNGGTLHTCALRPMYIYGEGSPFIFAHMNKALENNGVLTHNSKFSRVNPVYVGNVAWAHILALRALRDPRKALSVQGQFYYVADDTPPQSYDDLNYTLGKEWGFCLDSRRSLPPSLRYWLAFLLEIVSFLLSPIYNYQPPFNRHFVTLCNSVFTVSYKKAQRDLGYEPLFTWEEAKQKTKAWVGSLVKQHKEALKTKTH
The data set is described as follows: Inhibition of steroid glucuronide metabolite formation in pig hepatocytes by the 3βHSD inhibitor. Type of data set: cell-based. How it is done:
as §1, §2, §3, §4

Where [3] appears, read: 10 µM inhibitor with 17β-estradiol.
Setting [4] is: 10 µM inhibitor with dihydrotestosterone.
Where [5] appears, read: 48 h, 10 µM apigenin with 10 µM 17β-estradiol, Mean ± SD.
Setting [6] is: 48 h, 10 µM trilostane with 10 µM 17β-estradiol, Mean ± SD.

Entries after “also recorded” stand apart in the source; their conditions may differ. Like-named read-outs stand apart in the source and are kept apart here.

Regarding “5α-androst-16-en-3β-glucuronide [Androstenone glucuronide]”, the “Peak height of the ion chromatogram of the steroid metabolite in cell culture medium, C” value (“Peak height of the ion chromatogram … C” for short) in data set [1] turned out to be 3.4±0.5 cps/1000.

In the case of `C[C@]12CC[C@@H]3c4ccc(O)cc4CC[C@H]3[C@@H]1CC[C@@H]2O` [17β-Estradiol], in the data set “in vitro”, the viability at 48 h, 1 µM amounted to 109 ± 4.8%; the viability at 48 h, 10 µM turned out to be 91.6 ± 0.4%; the viability at 48 h, 25 µM is 89.8 ± 8%; the viability at 48 h, 50 µM amounted to 83.6 ± 1.6%. Also, in data set [2], the “Share of 17β-estradiol oxidized at C-17 to estrone, forming E1-G” value was “over 80%” and the “Share of 17β-estradiol undergoing direct phase II metabolism, forming E2-G” value is “Less than 20%”. The “Parent steroid in cell culture medium after incubation with hepatocytes” value in data set [2] (6 h) is given as “No 17β-estradiol was found”.

On to `C[C@]12CCC(=O)C[C@@H]1CC[C@@H]1[C@@H]2CC[C@]2(C)C=CC[C@@H]12` [Androstenone, 5α-androst-16-ene-3-one], for which, in “in vitro”, the viability at 48 h, 1 µM was 90.6 ± 3.8%; the viability at 48 h, 10 µM was found to be 89 ± 7.2%; the viability at 48 h, 25 µM came to 77.2 ± 0.6%; the viability at 48 h, 50 µM was determined as 78.7 ± 6.8%. Besides, in data set [2], the Metabolite identified entry is listed as “hydroxylated to 3β-A prior to glucuronidation”.

As to `O=c1cc(-c2ccc(O)cc2)oc2cc(O)cc(O)c12` [Apigenin, apigenin], in the data set on 17βHSD (setting [3]), the “Inhibition of E2-G and E1-G formation” value is on record as “no significant inhibition”. Besides, the “Effect on the level of androstenone metabolite” value in the data set on 17βHSD (10 µM inhibitor with androstenone) is “did not affect significantly”. Further, the “Effect on DHT-G level / formation” value in the data set on 17βHSD (setting [4]) was “did not have any effect”. Moreover, in the data set with 17βHSD (setting [5]), the “Peak height of Estradiol 3β-glucuronide in cell culture medium” value is given as 2.6±0.1 cps/1000 and the “Peak height of Estrone glucuronide in cell culture medium” value is given as 15.3±1.1 cps/1000. For the same compound, the “Peak height of Androstenone glucuronide in cell culture medium” value in the data set with 17βHSD (48 h, 10 µM apigenin with 10 µM androstenone, Mean ± SD) amounted to 3.7±0.9 cps/1000. Besides, the “Peak height of Dihydrotestosterone 17β-glucuronide in cell culture medium” value with 17βHSD (48 h, 10 µM apigenin with 10 µM dihydrotestosterone, Mean ± SD) is 11.5±0.5 cps/1000. For the same compound, in the data set “in vitro”, the viability at 48 h, 1 µM came to 97.7 ± 3.2%; the viability at 48 h, 10 µM worked out at 83.5 ± 5.9%; the viability at 48 h, 25 µM worked out at 64.2 ± 1.7%; the viability at 48 h, 50 µM is 69.8 ± 0.9%.

Turning to `C[C@]12CCC(=O)C[C@@H]1CC[C@@H]1[C@@H]2CC[C@]2(C)[C@@H](O)CC[C@@H]12` [Dihydrotestosterone], in “in vitro”, the viability at 48 h, 1 µM is 96.7 ± 0.1%; the viability at 48 h, 10 µM is 84.3 ± 3.9%; the viability at 48 h, 25 µM amounted to 79.1 ± 2.2%; the viability at 48 h, 50 µM is 76.1 ± 4.7%. Moreover, the Metabolite identified in data set [1] (10 µM steroid, LC-TOF-MS, cell culture medium) was 5α-dihydrotestosterone-17β-glucuronide. Besides, the “Parent steroid in cell culture medium after incubation with hepatocytes” value in data set [1] (10 µM steroid, after 6 h of incubation) is recorded as “rapidly metabolized; also recorded: No dihydrotestosterone was found”.

`C[C@]12CC[C@@H]3c4ccc(O[C@@H]5O[C@H](C(=O)O)[C@@H](O)[C@H](O)[C@H]5O)cc4CC[C@H]3[C@@H]1CC[C@@H]2O` [Estradiol 3β-glucuronide, β-estradiol-3-glucuronide]: the “Peak height of the ion chromatogram … C” value in data set [1] was 3.1±0.8 cps/1000.

As for `C[C@]12CC[C@@H]3c4ccc(O[C@@H]5O[C@H](C(=O)O)[C@@H](O)[C@H](O)[C@H]5O)cc4CC[C@H]3[C@@H]1CCC2=O` [Estrone glucuronide, estrone-3-glucuronide], the “Peak height of the ion chromatogram … C” value in data set [1] is given as 16.5±2.2 cps/1000.

For the compound `C[C@]12CC[C@H]3[C@@H](CC[C@@]45O[C@@H]4C(O)=C(C#N)C[C@]35C)[C@@H]1CC[C@@H]2O` [Trilostane, trilostane], in “in vitro”, the viability at 48 h, 1 µM came out at 91.8 ± 0.1%; the viability at 48 h, 10 µM was 82.4 ± 2.1%; the viability at 48 h, 25 µM was 79.1 ± 2.9%; the viability at 48 h, 50 µM came out at 69.2 ± 1.8%. Moreover, on 3βHSD (setting [3]), the “Inhibition of E2-G and E1-G formation” value was “no significant inhibition”. Besides, the “Effect on DHT-G formation” value at 3βHSD (setting [4]) is reported as “greatly inhibited”. Further, the “Decrease in the formation of androstenone metabolite” value at 3βHSD (10 µM inhibitor, cell culture medium) worked out at 70%. The “Reduction of DHT-G formation” value on 3βHSD (10 µM inhibitor, hepatocytes) is reported as ~86%. In addition, on 3βHSD (setting [6]), the “Peak height of Estradiol 3β-glucuronide in cell culture medium” value came out at 2.7±0.4 cps/1000 and the “Peak height of Estrone glucuronide in cell culture medium” value amounted to 13.5±1.7 cps/1000. The “Peak height of Androstenone glucuronide in cell culture medium” value at 3βHSD (48 h, 10 µM trilostane with 10 µM androstenone, Mean ± SD) is 1.0±0.6 cps/1000. Further, the “Peak height of Dihydrotestosterone 17β-glucuronide in cell culture medium” value on 3βHSD (48 h, 10 µM trilostane with 10 µM dihydrotestosterone, Mean ± SD) is reported as 1.6±0.2 cps/1000.

What is called viability is a read-out of living cells in per cent, often relative to untreated cells.

The values are drawn from PMC4295843, “Metabolism of Androstenone, 17β-Estradiol and Dihydrotestosterone in Primary Cultured Pig Hepatocytes and the Role of 3β-Hydroxysteroid Dehydrogenase in This Process” (PLoS ONE, 2015).
